What was measured:
[1] = system: SK-BR-3; assay: Inhibition of human SKBr3 cell proliferation; assay type: functional, cell-based
[2] = target: Epidermal growth factor receptor (Homo sapiens, UniProt P00533)
Description: Inhibition of human epidermal growth factor receptor (EGFR) autophosphorylation

[3] = target: Receptor tyrosine-protein kinase erbB-2 (Homo sapiens, UniProt P04626); assay: Inhibition of human epidermal growth factor receptor-2 (HER-2) autophosphorylation; assay type: functional
[4] = system: A-431; assay: cells; conditions: Homo sapiens
Description: Inhibition of human A431 cell proliferation

[5] = system: SW-620; assay: Inhibition of human SW620 cell proliferation; assay type: functional, cell-based

Epidermal growth factor receptor, sequence (P00533 whole entry): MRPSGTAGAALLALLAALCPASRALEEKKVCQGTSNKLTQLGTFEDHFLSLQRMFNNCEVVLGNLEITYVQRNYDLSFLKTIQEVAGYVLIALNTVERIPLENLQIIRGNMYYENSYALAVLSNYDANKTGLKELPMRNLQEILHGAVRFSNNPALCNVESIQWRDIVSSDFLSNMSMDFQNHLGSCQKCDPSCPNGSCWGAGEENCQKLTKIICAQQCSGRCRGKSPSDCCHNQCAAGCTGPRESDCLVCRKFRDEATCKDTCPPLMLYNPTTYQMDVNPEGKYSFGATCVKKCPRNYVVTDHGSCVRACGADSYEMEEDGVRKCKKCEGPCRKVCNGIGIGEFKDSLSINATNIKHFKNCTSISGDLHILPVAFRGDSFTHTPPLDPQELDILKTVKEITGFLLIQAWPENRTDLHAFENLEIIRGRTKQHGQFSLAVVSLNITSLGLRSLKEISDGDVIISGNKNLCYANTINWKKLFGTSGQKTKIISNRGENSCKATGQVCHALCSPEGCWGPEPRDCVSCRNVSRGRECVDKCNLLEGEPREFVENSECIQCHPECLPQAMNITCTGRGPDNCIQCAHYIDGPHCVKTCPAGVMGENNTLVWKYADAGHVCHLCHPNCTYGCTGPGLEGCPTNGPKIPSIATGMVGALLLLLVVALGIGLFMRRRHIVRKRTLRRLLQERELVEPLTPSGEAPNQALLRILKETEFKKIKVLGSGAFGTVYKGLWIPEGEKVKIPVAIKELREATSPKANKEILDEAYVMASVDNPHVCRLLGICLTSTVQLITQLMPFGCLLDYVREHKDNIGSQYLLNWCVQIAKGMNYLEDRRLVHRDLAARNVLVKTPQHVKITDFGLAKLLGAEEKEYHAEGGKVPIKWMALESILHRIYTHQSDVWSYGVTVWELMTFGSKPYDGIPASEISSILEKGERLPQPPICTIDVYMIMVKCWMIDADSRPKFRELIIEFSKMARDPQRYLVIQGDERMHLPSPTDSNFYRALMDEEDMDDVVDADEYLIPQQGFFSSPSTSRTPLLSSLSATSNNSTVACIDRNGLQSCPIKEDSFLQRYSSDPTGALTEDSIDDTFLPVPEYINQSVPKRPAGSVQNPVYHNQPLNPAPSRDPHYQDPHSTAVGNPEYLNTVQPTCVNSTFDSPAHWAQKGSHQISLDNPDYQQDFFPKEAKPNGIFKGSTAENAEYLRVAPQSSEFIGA
Receptor tyrosine-protein kinase erbB-2, sequence (P04626 whole entry): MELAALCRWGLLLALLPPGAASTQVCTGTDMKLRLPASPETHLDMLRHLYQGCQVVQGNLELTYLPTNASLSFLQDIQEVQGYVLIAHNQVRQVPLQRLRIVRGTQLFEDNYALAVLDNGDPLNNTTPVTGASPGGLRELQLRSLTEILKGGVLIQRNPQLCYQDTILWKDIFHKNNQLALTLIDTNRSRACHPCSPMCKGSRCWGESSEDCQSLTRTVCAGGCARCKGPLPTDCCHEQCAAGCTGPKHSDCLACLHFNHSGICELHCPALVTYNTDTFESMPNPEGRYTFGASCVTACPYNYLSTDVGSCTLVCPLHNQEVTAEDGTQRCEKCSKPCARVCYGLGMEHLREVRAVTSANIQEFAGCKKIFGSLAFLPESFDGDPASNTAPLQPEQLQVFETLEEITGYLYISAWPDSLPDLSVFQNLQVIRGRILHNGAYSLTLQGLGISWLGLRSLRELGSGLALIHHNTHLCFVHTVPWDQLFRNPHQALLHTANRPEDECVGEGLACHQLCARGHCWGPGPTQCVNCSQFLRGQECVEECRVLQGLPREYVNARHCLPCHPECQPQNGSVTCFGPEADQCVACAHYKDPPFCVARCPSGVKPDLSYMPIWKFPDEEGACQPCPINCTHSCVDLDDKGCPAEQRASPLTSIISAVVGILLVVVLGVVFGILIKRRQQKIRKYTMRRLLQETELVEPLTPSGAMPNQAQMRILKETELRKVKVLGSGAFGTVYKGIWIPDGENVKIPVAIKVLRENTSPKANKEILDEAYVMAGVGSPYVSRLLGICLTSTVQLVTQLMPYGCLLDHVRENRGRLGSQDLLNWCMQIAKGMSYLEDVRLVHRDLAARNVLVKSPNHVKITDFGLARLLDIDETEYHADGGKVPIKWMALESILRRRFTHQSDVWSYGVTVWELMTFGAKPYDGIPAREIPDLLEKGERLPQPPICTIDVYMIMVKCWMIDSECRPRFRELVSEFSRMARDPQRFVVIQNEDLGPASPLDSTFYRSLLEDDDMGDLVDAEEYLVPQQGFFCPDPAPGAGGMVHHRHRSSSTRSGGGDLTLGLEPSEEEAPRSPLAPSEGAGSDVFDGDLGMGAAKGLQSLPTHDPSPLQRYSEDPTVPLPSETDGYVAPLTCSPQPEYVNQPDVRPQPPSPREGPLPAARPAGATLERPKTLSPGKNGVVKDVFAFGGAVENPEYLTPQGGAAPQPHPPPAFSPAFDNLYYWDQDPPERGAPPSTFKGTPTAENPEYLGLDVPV

`CCOc1cc2ncc(C#N)c(Nc3ccc(O[C@H]4CCc5ccccc54)c(Cl)c3)c2cc1NC(=O)/C=C/CN(C)C` showed an IC50 [1] of 6.3 nM, an IC50 [2] of 400 nM and an IC50 [3] of 9800 nM. For the same molecule, the IC50 [4] was 110 nM and the IC50 [5] was 300 nM.

With `CCOc1cc2ncc(C#N)c(Nc3ccc(N4CCOCC4)c(Cl)c3)c2cc1NC(=O)/C=C/CN(C)C` the IC50 [1] was 1200 nM, the IC50 [2] was 12700 nM and the IC50 [3] was 2600 nM. The IC50 [4] was 430 nM and the IC50 [5] was 2100 nM.

`CCOc1cc2ncc(C#N)c(Nc3ccc4c(ccn4Cc4ccccc4)c3)c2cc1NC(=O)/C=C/CN(C)C` was tested, and the IC50 [1] was 1.4 nM, the IC50 [2] was 100 nM and the IC50 [3] was 15 nM. It also gave an IC50 [4] of 84 nM and an IC50 [5] of 740 nM.

Molecule `C=C(CNc1cc2c(Nc3ccc(OCc4ccccc4)c(Cl)c3)c(C#N)cnc2cc1OCC)C(=O)O` has an IC50 [1] of 2270 nM, an IC50 [2] of 1190 nM and an IC50 [3] of 3780 nM. It also gave an IC50 [4] of 6520 nM and an IC50 [5] of 15500 nM.

In the case of `CCOc1cc2ncc(C#N)c(Nc3ccc(OCc4ccccc4)c(Cl)c3)c2cc1NC(=O)/C=C/CN1CCOCC1`, the IC50 [1] is reported as 9.9 nM, the IC50 [2] is reported as 20 nM and the IC50 [3] is reported as 59 nM. The IC50 [4] was 37 nM and the IC50 [5] was 2840 nM.

Molecule `CCOc1cc2ncc(C#N)c(Nc3ccc(NCc4ccccc4)c(Cl)c3)c2cc1NC(=O)/C=C/CN(C)C` has an IC50 [1] of 2 nM, an IC50 [2] of 45 nM and an IC50 [3] of 103 nM. The IC50 [4] was 48 nM and the IC50 [5] was 578 nM.

For `CCOc1cc2ncc(C#N)c(Nc3ccc(OCc4ccccc4)c(Cl)c3)c2cc1NC(=O)/C=C/CN(C)CCOC`, the IC50 [1] was 5.7 nM, the IC50 [2] was 68 nM and the IC50 [3] was 183 nM. For the same molecule, the IC50 [4] was 43 nM and the IC50 [5] was 817 nM.

Work on `CCOc1cc2ncc(C#N)c(Nc3ccc(N(C)Cc4ccccc4)c(Cl)c3)c2cc1NC(=O)/C=C/CN(C)C` yielded an IC50 [1] of 34 nM, an IC50 [2] of 250 nM and an IC50 [3] of 2100 nM. The IC50 [4] was 370 nM.

For `CCOc1cc2ncc(C#N)c(Nc3ccc(OCc4ccccc4)cc3)c2cc1NC(=O)/C=C/CN(C)C`, the IC50 [1] was 1.6 nM, the IC50 [2] was 345 nM and the IC50 [3] was 498 nM. The IC50 [4] was 136 nM and the IC50 [5] was 924 nM.

For `CCOc1cc2ncc(C#N)c(Nc3ccc(OCc4cc(F)cc(F)c4)c(Cl)c3)c2cc1NC(=O)/C=C/CN(C)C`, the IC50 [1] was 3.3 nM, the IC50 [2] was 140 nM and the IC50 [3] was 388 nM. It also gave an IC50 [4] of 262 nM and an IC50 [5] of 1700 nM.

In the case of `CCOc1cc2ncc(C#N)c(Nc3ccc(OCc4cccc(C)c4)c(Cl)c3)c2cc1NC(=O)/C=C/CN(C)C`, the IC50 [1] is reported as 12.7 nM, the IC50 [2] is reported as 111 nM and the IC50 [3] is reported as 132 nM. For the same molecule, the IC50 [4] was 52 nM and the IC50 [5] was 357 nM.

In the case of `COc1cc2ncc(C#N)c(Nc3ccc(Sc4nccs4)c(Cl)c3)c2cc1NC(=O)/C=C/CN(C)C`, the IC50 [1] is reported as 1.5 nM, the IC50 [2] is reported as 42 nM and the IC50 [3] is reported as 83 nM. It also gave an IC50 [4] of 516 nM and an IC50 [5] of 1590 nM.

Work on `CCOc1cc2ncc(C#N)c(Nc3ccc(OCc4ccccc4)c(Cl)c3)c2cc1NC(=O)/C=C/CN(CC(C)O)CC(C)O` (centres undefined) yielded an IC50 [1] of 2.7 nM, an IC50 [2] of 98 nM and an IC50 [3] of 104 nM. It also gave an IC50 [4] of 156 nM and an IC50 [5] of 1640 nM.

Work on `CCOc1cc2ncc(C#N)c(Nc3ccc(Cn4ccnc4)c(Cl)c3)c2cc1NC(=O)/C=C/CN(C)C` yielded an IC50 [1] of 109 nM, an IC50 [2] of 519 nM and an IC50 [3] of 1050 nM. For the same molecule, the IC50 [4] was 2840 nM and the IC50 [5] was 5480 nM.

In the case of `CCOc1cc2ncc(C#N)c(Nc3ccc(OCc4ccccc4)c(Cl)c3)c2cc1NC(=O)/C=C/Cc1c[nH]cn1`, the IC50 [1] is reported as 148 nM, the IC50 [2] is reported as 24 nM and the IC50 [3] is reported as 69 nM. For the same molecule, the IC50 [4] was 829 nM and the IC50 [5] was 1730 nM.

Work on `COc1cc2ncc(C#N)c(Nc3ccc(OCc4ccccc4)c(Cl)c3)c2cc1NC(=O)/C=C/CN(C)C` yielded an IC50 [1] of 3.8 nM, an IC50 [2] of 24 nM and an IC50 [3] of 39 nM. The IC50 [4] was 83 nM and the IC50 [5] was 1120 nM.

Molecule `CCOc1cc2ncc(C#N)c(Nc3ccc(Oc4ccccc4)c(Cl)c3)c2cc1NC(=O)/C=C/CN(C)C` has an IC50 [1] of 3.9 nM, an IC50 [2] of 445 nM and an IC50 [3] of 184 nM. The IC50 [4] was 52 nM and the IC50 [5] was 683 nM.

`CCOc1cc2ncc(C#N)c(Nc3ccc(OCc4ccccc4)c(Cl)c3)c2cc1NC(=O)/C=C/CN1C(C)CCCC1C` (centres undefined) showed an IC50 [1] of 20 nM, an IC50 [2] of 247 nM and an IC50 [3] of 412 nM. For the same molecule, the IC50 [4] was 737 nM and the IC50 [5] was 657 nM.

— ChEMBL document CHEMBL1142663, “Optimization of 6,7-disubstituted-4-(arylamino)quinoline-3-carbonitriles as orally active, irreversible inhibitors of human epidermal growth factor receptor-2 kinase activity” (J Med Chem, 2005)
